# Laboratory results reported in article PMC10819767, “An ADAM10 Exosite Inhibitor Is Efficacious in an In Vivo Collagen-Induced Arthritis Model” (Pharmaceuticals, 2024).
# What was measured:
# [1] = system: IL-6; assay: RA serum marker ELISA, IL-6, CIA mice; type: in vivo, C57 BL/6 mice
# Protocol: (§1) The sample size for therapeutic evaluation was calculated using power analysis based on experimental data from similar studies. In a two-sided test and setting the α value at 0.05 and desired power at 0.95, the sample size turned out to be 5 per group. We also expected deaths during the experiments; therefore, we used the formula Nt = N/1-q, where Nt is the number of mice initially used, N is the number required at the end of the study, and q is the proportion of attrition, which is generally 10%. Thus, at the end of the study period, we expected to have data from at least 6 mice per group, which is enough to attain statistical significance if it exists. Data were analyzed using a one-way ANOVA followed by Dunnett’s test compared with the vehicle control. At the end of the study, the mice were anesthetized and sacrificed using CO2 euthanasia. The hind paws of the mice were subjected to a histopathological examination, and the serum was analyzed for CRP, TNF-α, IL-6, and IL-10, as described in the below sections.
# (§2) RA serum marker analysis. Blood was collected from the tail vein, and 100 µL was used for the assays. All assays were conducted using the manufacturer’s instructions for the respective assay kits. The following assay kits were purchased: Mouse TNF-α GENLISA™ ELISA (Krishgen BioSystems cat#KB2145, Mumbai, India), Mouse IL-10 GENLISA™ ELISA (Krishgen BioSystems cat#KB2072), Mouse hsC-Reactive Protein, hs-CRP GENLISA™ ELISA (Krishgen BioSystems cat#KLM0318), Mouse IL-6 GENLISA™ ELISA (Krishgen BioSystems cat#KB2068).
# [2] = system: collagen-induced arthritis (CIA) model; assay: CIA mouse model: clinical arthritis score and paw swelling; type: in vivo, C57 BL/6 mice; details: for disease score: scale 0–4
# Protocol: In vivo efficacy in the CIA mouse model. All animal studies were conducted in accordance with NSU IACUC guidelines. Study protocol #2021.04.DM5 was approved by NSU IACUC before the commencement of the studies. CID 3117694 and indomethacin were ground with a small amount of the dispersing agent (0.5% HPMC (3 cP)–0.5% Tween 80) using a mortar and a pestle and mixed repeatedly to form a smooth paste. The paste was moved to a graduated cylinder and filled up to the required volume with the dispersing agent to form a suspension, as described elsewhere. The test compound (10, 30, and 50 mg/kg) and indomethacin (2.5 mg/kg) were administered with a mouse gavage needle (gauge no: 18, BD, catalog number: 653902) through the oral route as a suspension with a 5 mL/kg dose volume (from day 0 to day 28). In this study, 6–8-week-old C57 BL/6 mice from Charles River (male and female) were used. Animals were randomly assigned to one of the following six groups: (1) normal (non-RA control), (2) RA control untreated, (3) RA control treated with 2.5 mg/kg/day indomethacin, and 3 test groups (CID 3117694 (10 mg/kg/day, 30 mg/kg/day, and 50 mg/kg/day)) to provide an estimate for the lead compound’s efficacy range. Each group had three males and three females assigned to the control for gender-based differences. Arthritis was induced in the right paws of the mice under anaesthesia. The left paw of the mice was used as a control. A total of 10 µL collagen from bovine (type II collagen) nasal septum emulsion (2 mg/mL) was injected into the right knee joint with a glass Hamilton syringe and 25 G needles for intraarticular (i.a.) injection, followed by a total of 100 µL Complete Freund’s adjuvant (CFA) emulsion was injected at the back of mice using a syringe with 25 G needles subcutaneously (s.c.). On day 14 after the first injection, the mice were injected, i.e., with 10 µL of collagen from the bovine nasal septum ([…]) and s.c. with a 100 µL CFA emulsion for a boost injection. Arthritis progression was monitored using a clinical arthritis scoring system (0–4), and paw swelling was measured with the help of a plethysmograph on days 0, 14, 21, and 28 after the induction of arthritis. […] After the administration of a primary dose of collagen from the bovine nasal septum, CFA scoring was assessed. Measurements were taken on days 0, 14, 21, and 28 after the induction of arthritis in induced paws (right paw) and non-arthritis paws (left paw). CID 3117694 (10 mg/kg/day, 30 mg/kg/day, and 50 mg/kg/day) and pharmacological control (indomethacin 2.5 mg/kg/day) treatment were given every day for 28 days beginning from day 1 via oral gavage in hydroxy-propyl-methyl cellulose (HPMC) suspension.
# [3] = system: cardiac ion channel hERG; design: method as in PubChem AID 1511; details: ref PubChem AID 1511, cited from earlier work
# [4] = system: muscarinic (CHRM1); design: method as in PMID 34817776; details: cited from earlier work
# [5] = system: OPRM1; design: method as in PMID 34817776; details: cited from earlier work
# [6] = system: OPRD1; design: method as in PMID 34817776; details: cited from earlier work
# [7] = system: multiple cell lines; design: method as in PubChem Assay IDs 1794763-1794787, 19, 20; details: 10 µM and up to 100 µM in some cases; ref PubChem Assay IDs 1794763-1794787, 19, 20; cited from earlier work
# [8] = system: T-cell receptors; design: method as in PubChem bioassay 504894; details: ref PubChem bioassay 504894; cited from earlier work
# [9] = system: C-reactive protein (CRP); assay: RA serum marker ELISA, CRP, CIA mice; type: in vivo, C57 BL/6 mice
# Protocol: as §1, §2
# [10] = CID 3117694 50 mg/kg/day, indomethacin 2.5 mg/kg
smiles,measurement,setting,value
COc1cccc(C(=O)NNC(=O)C(=O)Nc2ccc(C)c(Cl)c2)c1 [CID 3117694],IL-6 blood level vs healthy control,[1]; [10],decreased the markers to the level of the healthy control
same,concentration of IL-6 in the blood of arthritic mice,"[1]; all tested doses (10, 30, 50 mg/kg), vs vehicle control",lowers
same,paw swelling vs normal control (in words),[2]; 50 mg/kg/day,decreased the swelling to the level of the normal control
same,disease score,"[2]; day 21, 10 mg/kg oral",4
same,disease score,"[2]; day 21, 30 mg/kg oral",three
same,disease score,"[2]; day 21, 50 mg/kg oral",2
same,disease score,"[2]; day 28, 10 mg/kg oral",2
same,disease score,"[2]; day 28, 30 mg/kg oral",2
same,disease score,"[2]; day 28, 50 mg/kg oral",1
same,effect on hERG with pro-arrhythmic agents (in words),[3]; no EC50 value reported,cardioprotective
same,hERG inhibition (in words),[3],not an hERG inhibitor
same,activity against CHRM1,[4],inactive
same,activity against OPRM1,[5],inactive
same,activity against OPRD1,[6],inactive
same,effect on cellular viability,[7],no effect
same,activity in assay for activators of T-cell receptors,[8],inactivity
same,concentration of CRP in the blood of arthritic mice,"[9]; 30 and 50 mg/kg, vs vehicle control",lowers
same,CRP blood level vs healthy control,[9]; [10],decreased the markers to the level of the healthy control
